{"source": "patent US12275734B1", "about": "“Pleuromutilin onium salt derivative containing a 3H-imidazo[4,5-c]pyridine side chain, and a preparation method and application thereof” (SHAANXI UNIVERSITY OF SCIENCE AND TECHNOLOGY, priority 2024, dated 2025)", "key": {"E. coli (ATCC 25922) [1]": {"tested_on": "E. coli (ATCC 25922)", "experiment": "Bacterial extracellular conductivity", "format": "cell-based", "conditions": "1×MIC and 2×MIC, vs blank control", "text": "Changes in conductivity can reflect the permeability and integrity of the cell membrane. When the cell membrane is damaged or the permeability increases, the flow of ions inside and outside the cell will increase, resulting in an increase in conductivity. In the fields of biology and cell biology, conductivity measurements are often used to assess changes in cell membrane integrity.\nMRSA and E. coli cells in the logarithmic growth phase were first resuspended after high-speed centrifugation and repeated PBS buffer washing and adjusted to the appropriate optical density. Next, different concentrations of compound i (1×MIC and 2×MIC) were added to the cell suspension, and a blank control group was set. All samples were incubated at 37° C. and sampled at set time points (0, 1, 2, 4, 6, and 8 hours). […] This series of operations helps to reveal the specific mechanism of action of compound i on bacterial growth and cell structure."}, "E. coli (ATCC 25922) [2]": {"tested_on": "E. coli (ATCC 25922)", "experiment": "Intracellular and extracellular ATP concentration", "format": "cell-based", "description": "The intracellular and extracellular ATP levels refer to the concentration of ATP inside and outside the cell. Under normal physiological conditions, ATP is mainly produced inside the cell and released outside the cell when needed. This dynamic change is very important for maintaining normal biological homeostasis.\nDetermine the intracellular ATP concentration using the ATP assay kit:\nSecondly, the bacterial suspension was treated with different concentrations of compound i, and a blank control group was set up. Next, the samples were incubated at 37° C. and the cells were lysed by ultrasound to extract ATP. After that, the supernatant was collected by high-speed centrifugation and ATP detection was performed, which involved adding the detection solution and compound to a 96-well plate and using a reader to measure the light intensity. Finally, data analysis and statistics were performed to evaluate the effects of the compound by comparing the ATP levels of different treatment groups."}, "E. coli (ATCC 25922) [3]": {"tested_on": "E. coli (ATCC 25922)", "experiment": "Time-kill curve", "format": "cell-based", "conditions": "1×MIC to 8×MIC, 0-24 hours", "description": "Based on the MIC test results, the best performing active compounds were selected for time-kill curve studies.\n(2) Sampling: At 0, 2, 4, 6, 8, 12, and 24 hours, aspirate 100 μL of the mixture\n(3) Serial dilution and coating: Use 10 mM PBS buffer to dilute 10 times continuously, and evenly coat the diluted liquid on the agar plate\n(4) Incubation and counting: Incubate in a 37° C. incubator for 24 hours and count the colonies.\n(5) Sterilization curve drawing: Draw the curve of colony count change over time at different compound concentrations, and record the results as shown in FIG. 1."}, "[4]": {"tested_on": "Staphylococcus aureus (MRSA, ATCC 33591)", "experiment": "Mouse MRSA systemic infection model, H&E tissue sections", "format": "in vivo", "conditions": "MRSA-infected mice", "description": "(§1) Establishment of a mouse model of MRSA systemic infection\n(§2) (2) Pretreatment: All mice received cyclophosphamide treatment, with the first intraperitoneal injection of 150 mg/kg cyclophosphamide 4 days before infection and the second intraperitoneal injection of 100 mg/kg cyclophosphamide 1 day before infection.\n(4) Infection process: Mice were anesthetized with isoflurane and infected by intraperitoneal injection of Staphylococcus aureus (MRSA, ATCC 33591) at a concentration of 10^7 CFU/mL. […]\n(2) Processing: • (a) Time point: At the first hour after infection, mice in the experimental group received intraperitoneal injection of 0.5 mL of compounds of different concentrations, while mice in the control group received the same volume of solvent. • (b) Treatment time: […]\nPart II: The samples were fixed with 10% formalin buffer, then embedded in paraffin and sectioned. The sections were stained with hematoxylin and eosin (H&E) and then examined under an optical microscope."}, "MRSA (ATCC 33591)": {"tested_on": "MRSA (ATCC 33591)", "experiment": "Biofilm formation, crystal violet staining", "format": "cell-based, S. aureus", "description": "Quantification of biofilm using crystal violet staining:\nMRSA and E. coli cells were first adjusted to the logarithmic growth phase and diluted to […]. […] A blank control group without compound addition was set up. After incubation, the suspension was discarded and washed three times with 10 mM PBS buffer, and the biofilm was fixed with methanol for 15 minutes. After removing the methanol, 200 μL of 0.1% crystal violet was added to each well for staining for 30 minutes, and then the crystal violet was discarded and washed again with PBS three times. After the well plate was dried, 200 μL of 95% ethanol was added to each well to dissolve the fixed dye. […] This process allows for quantitative analysis of the ability of different concentrations of compound i to form biofilms."}, "[5]": {"tested_on": "Staphylococcus aureus (MRSA, ATCC 33591)", "experiment": "Mouse MRSA systemic infection model, survival rate", "format": "in vivo", "conditions": "MRSA-infected mice, 5, 10, 20 mg/kg single intraperitoneal injection 1 hour after infection, 7-day survival", "description": "as §1\n(1) Solution preparation and bacterial activation: Reference Example 15.\nas §2\n(3) Control group treatment: Mice in the blank control group received intraperitoneal injection of 0.9% saline.\n(4) Infection process: Mice were anesthetized with isoflurane and infected by intraperitoneal injection of Staphylococcus aureus (MRSA, ATCC 33591) at a concentration of 10^7 CFU/mL.\n(1) Experimental groups: The doses of compound i and valnemulin were 5, 10, and 20 mg/kg, respectively (the solvent was dimethyl sulfoxide: Tween-80: sterile water=1:0.5:9.5);\nA model control group (administered with a solvent after infection with bacteria) and a blank control group (administered with a solvent only without infection with bacteria) were set up, with 10 mice in each group, half of which were male and half were female.\n(2) Time point: Intraperitoneal injection was performed in the experimental group mice at 1 hour after infection.\n(3) Therapeutic dose: The mice in the experimental groups received intraperitoneal injection of 0.5 mL of compound i and valnemulin at different concentrations. […]"}, "[6]": {"conditions": "5 mg/kg compound i, intraperitoneal"}}}
{"smiles": "C=C[C@]1(C)C[C@@H](OC(=O)CSc2nc3cc[n+](Cc4ccc(C)cc4)cc3[nH]2)[C@]2(C)[C@H](C)CC[C@]3(CCC(=O)[C@H]32)[C@@H](C)[C@@H]1O", "note": "[Compound i, 5-(4-methylbenzyl)-2-((2-(((3aR,4R,5R,7S,8S,9R,9aS,12R)-8-hydroxy-4,7,9,12-tetramethyl-3-oxo-7-vinyldecahydro-4,9a-propancyclopenta[8]cyclo-5-yl)oxy)-2-oxoethyl)thio)-3H-imidazo[4,5-C]pyridine-5-ium]", "values": [{"measurement": "extracellular conductivity", "setting": "E. coli (ATCC 25922) [1]", "result": "increased"}, {"measurement": "extracellular fluorescence intensity (ATP) increased by", "setting": "E. coli (ATCC 25922) [2]; 1×MIC", "result": 4.34, "unit": "times"}, {"measurement": "intracellular fluorescence intensity (ATP) decreased by", "setting": "E. coli (ATCC 25922) [2]; 1×MIC", "result": 50.75, "unit": "%"}, {"measurement": "extracellular fluorescence intensity (ATP) increased by", "setting": "E. coli (ATCC 25922) [2]; 2×MIC", "result": 5.35, "unit": "times"}, {"measurement": "intracellular fluorescence intensity (ATP) decreased by", "setting": "E. coli (ATCC 25922) [2]; 2×MIC", "result": 67.87, "unit": "%"}, {"measurement": "bactericidal efficiency (time-kill curve) compared with retapamulin", "setting": "E. coli (ATCC 25922) [3]", "result": "higher bactericidal efficiency"}, {"measurement": "kidney H&E histology", "setting": "[4]; [6]", "result": "returned to a normal state"}, {"measurement": "lung H&E histology", "setting": "[4]; [6]", "result": "no obvious pathological changes"}, {"measurement": "spleen H&E histology", "setting": "[4]; 5 mg/kg, after 7 days of treatment", "result": "immune response was weakened"}, {"measurement": "inhibition rate of biofilm formation", "setting": "MRSA (ATCC 33591); 1×MIC", "result": 51.33, "unit": "%"}, {"measurement": "inhibition rate of biofilm formation", "setting": "MRSA (ATCC 33591); 8×MIC", "result": 86.68, "unit": "%"}, {"measurement": "survival rate of mice", "setting": "[5]", "result": "significantly higher than the survival rate of mice given warnemulin"}]}
